Reference: ChEMBL document CHEMBL1201862, “PubChem BioAssay data set” (2004)
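Where inhibition never reached the appropriate level, the endpoint shown equals the highest concentration tested. Otherwise, values were interpolated linearly from a five-concentration, 48-hour dose response in 96-well plates. Abbreviation: GI50, concentration required for 50% inhibition of growth.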 The source made the active and inactive calls. No stated cut-off is given here; in the data, active = GI50 up to about 1.1 µM and inactive = higher.

How the values were obtained:
Experiment in all cases: inhibition of tumour cell growth, NCI panel, 48 h
SF-539 = test system: SF-539
SF-268 = test system: SF-268
SK-MEL-28 = test system: SK-MEL-28
RPMI-8226 = test system: RPMI-8226
HT-29 = test system: HT-29
MOLT-4 = test system: MOLT-4
MCF7 = test system: MCF7
SK-OV-3 = test system: SK-OV-3
LOX IMVI = test system: LOX IMVI
IGROV-1 = test system: IGROV-1
UO-31 = test system: UO-31
OVCAR-5 = test system: OVCAR-5
HOP-62 = test system: HOP-62
NCI-H460 = test system: NCI-H460
HCT-15 = test system: HCT-15
786-0 = test system: 786-0
TK-10 = test system: TK-10
K562 = test system: K562
OVCAR-4 = test system: OVCAR-4

| SMILES | GI50 (SF-539) | GI50 (SF-268) | GI50 (SK-MEL-28) | GI50 (RPMI-8226) | GI50 (HT-29) | GI50 (MOLT-4) | GI50 (MCF7) | GI50 (SK-OV-3) | GI50 (LOX IMVI) | GI50 (IGROV-1) | GI50 (UO-31) | GI50 (OVCAR-5) | GI50 (HOP-62) | GI50 (NCI-H460) | GI50 (HCT-15) [µM] | GI50 (786-0) | GI50 (TK-10) | GI50 (K562) | GI50 (OVCAR-4) |
| --- | --- | --- | --- | --- | --- | --- | --- | --- | --- | --- | --- | --- | --- | --- | --- | --- | --- | --- | --- |
| ClCCN1CCOC1=C1C=CC=C1 | > 100 µM (inactive) | > 100 µM (inactive) | > 100 µM (inactive) | > 100 µM (inactive) | > 100 µM (inactive) | 55.8 µM (inactive) | > 100 µM (inactive) | > 100 µM (inactive) | > 100 µM (inactive) | 14 µM (inactive) | > 100 µM (inactive) | > 100 µM (inactive) | 43.9 µM (inactive) | > 100 µM (inactive) | > 100 | > 100 µM (inactive) |  |  |  |
| O=C(c1cccs1)N1CCCN(C(=O)c2cccs2)C1=S | > 100 µM (inactive) | > 100 µM (inactive) | > 100 µM (inactive) | > 100 µM (inactive) | > 100 µM (inactive) | > 100 µM (inactive) | > 100 µM (inactive) | > 100 µM (inactive) | > 100 µM (inactive) | > 100 µM (inactive) | > 100 µM (inactive) | > 100 µM (inactive) | 26.2 µM (inactive) |  | > 100 | > 100 µM (inactive) | > 100 µM (inactive) | > 100 µM (inactive) |  |
| N[C@H]1CCc2c1nc1c(c2-c2ccccc2)CC[C@@H]1N | 16.1 µM (inactive) | 18.1 µM (inactive) |  | 34.4 µM (inactive) | 11.9 µM (inactive) | 8.73 µM (inactive) | 21.8 µM (inactive) |  | 14 µM (inactive) | 14.7 µM (inactive) |  | 18.3 µM (inactive) | 31.7 µM (inactive) | 25.6 µM (inactive) | 34.4 | 14.7 µM (inactive) | 28.3 µM (inactive) | 12.3 µM (inactive) | 50.8 µM (inactive) |
| C#CCC(N)(CO)C(=O)O (centres undefined) | > 100 µM (inactive) | > 100 µM (inactive) | > 100 µM (inactive) | > 100 µM (inactive) | > 100 µM (inactive) | > 100 µM (inactive) |  | > 100 µM (inactive) | > 100 µM (inactive) | > 100 µM (inactive) | > 100 µM (inactive) | > 100 µM (inactive) | > 100 µM (inactive) | > 100 µM (inactive) | > 100 | > 100 µM (inactive) | > 100 µM (inactive) | > 100 µM (inactive) | > 100 µM (inactive) |
| OC12CCCCCC1(N1CCOCC1)c1ccccc12 (centres undefined) | > 100 µM (inactive) | > 100 µM (inactive) | > 100 µM (inactive) | > 100 µM (inactive) | > 100 µM (inactive) | > 100 µM (inactive) |  | > 100 µM (inactive) | > 100 µM (inactive) | > 100 µM (inactive) | > 100 µM (inactive) | > 100 µM (inactive) | > 100 µM (inactive) | > 100 µM (inactive) | > 100 | > 100 µM (inactive) | > 100 µM (inactive) | > 100 µM (inactive) | > 100 µM (inactive) |
| CC(C)C(=O)Nc1nc2c(ncn2C2OC(CO)C(O)C2O)c(=O)[nH]1 (centres undefined) | > 100 µM (inactive) | > 100 µM (inactive) | > 100 µM (inactive) | > 100 µM (inactive) | > 100 µM (inactive) | > 100 µM (inactive) |  | > 100 µM (inactive) | > 100 µM (inactive) | > 100 µM (inactive) | > 100 µM (inactive) | > 100 µM (inactive) | > 100 µM (inactive) | > 100 µM (inactive) | > 100 | > 100 µM (inactive) | > 100 µM (inactive) | > 100 µM (inactive) | > 100 µM (inactive) |
| CCc1cccc(C)c1NC(=O)C(=O)Cc1nc2ccccc2o1 | > 100 µM (inactive) | > 100 µM (inactive) | > 100 µM (inactive) | > 100 µM (inactive) | > 100 µM (inactive) | > 100 µM (inactive) |  | > 100 µM (inactive) | > 100 µM (inactive) | > 100 µM (inactive) | > 100 µM (inactive) | > 100 µM (inactive) | > 100 µM (inactive) | > 100 µM (inactive) | > 100 | > 100 µM (inactive) | > 100 µM (inactive) | > 100 µM (inactive) | > 100 µM (inactive) |
| CCN(CC)CCNc1ccc2nnn3c4ccc(OC)cc4c(=O)c1c23 | 3.04 µM (inactive) | 7.33 µM (inactive) | 15.6 µM (inactive) | 2.82 µM (inactive) | 3.74 µM (inactive) | 1.93 µM (inactive) |  | 10.2 µM (inactive) | 2.22 µM (inactive) | 7.55 µM (inactive) | 10 µM (inactive) | 11 µM (inactive) | 11.1 µM (inactive) | 3.17 µM (inactive) | 6.17 | 4.31 µM (inactive) | 9.25 µM (inactive) | 3.78 µM (inactive) | 6.46 µM (inactive) |
| CC1(Br)CC2OC3(Br)C=CC(C)(O)C2(CC1=O)C3(C)C (centres undefined) | > 100 µM (inactive) | > 100 µM (inactive) | > 100 µM (inactive) | 36.8 µM (inactive) | > 100 µM (inactive) | > 94 µM (inactive) |  | > 100 µM (inactive) | > 100 µM (inactive) | > 100 µM (inactive) | > 83.9 µM (inactive) | > 100 µM (inactive) | > 100 µM (inactive) | > 100 µM (inactive) | > 100 | > 100 µM (inactive) | > 100 µM (inactive) | 19.1 µM (inactive) | > 100 µM (inactive) |
| CN(C)c1ccc2nc3c(ccc4ccccc43)[o+]c2c1 | 18.2 µM (inactive) | 15.8 µM (inactive) | 14.8 µM (inactive) | 3.48 µM (inactive) | 15.3 µM (inactive) | 2.99 µM (inactive) |  | 15.7 µM (inactive) | 6 µM (inactive) | 12.3 µM (inactive) | 17.7 µM (inactive) | 21.9 µM (inactive) | 19 µM (inactive) | 16.2 µM (inactive) | 11.8 | 15.5 µM (inactive) | 17.3 µM (inactive) | 2.74 µM (inactive) | 12.8 µM (inactive) |
| NC(=O)N1N=C2c3ccccc3OC[C@H]2[C@@H]1c1ccccc1 | 3.92 µM (inactive) | 9.86 µM (inactive) | 25.5 µM (inactive) | 8.89 µM (inactive) | 27.6 µM (inactive) | 29.5 µM (inactive) |  | 8.95 µM (inactive) | 26.1 µM (inactive) | 18.8 µM (inactive) | 42.4 µM (inactive) | 20.1 µM (inactive) | 23.8 µM (inactive) | 13.2 µM (inactive) | 5.55 | 5.02 µM (inactive) | 52.4 µM (inactive) | 14.4 µM (inactive) | 33.7 µM (inactive) |
| Cc1nc2ccccc2c(=O)n1/N=C(\N=N\c1cc(Cl)ccc1Cl)c1ccccc1 | 46.5 µM (inactive) | 58.6 µM (inactive) | 47.2 µM (inactive) | 41.4 µM (inactive) | 36.7 µM (inactive) | 35 µM (inactive) | 8.04 µM (inactive) | > 63 µM (inactive) | 40.6 µM (inactive) | 44.6 µM (inactive) | 22.9 µM (inactive) | > 100 µM (inactive) | 12.4 µM (inactive) | 45.8 µM (inactive) | 31.2 | 74.1 µM (inactive) | > 93.5 µM (inactive) | > 100 µM (inactive) | 51.8 µM (inactive) |
| C/C(=C\C(=O)Nc1ccc2[nH]nnc2c1)Nc1ccc2[nH]nnc2c1 | > 100 µM (inactive) | > 100 µM (inactive) | > 100 µM (inactive) | > 100 µM (inactive) | > 100 µM (inactive) | > 100 µM (inactive) |  | > 100 µM (inactive) | > 100 µM (inactive) | > 100 µM (inactive) | > 100 µM (inactive) | > 100 µM (inactive) | > 100 µM (inactive) | > 100 µM (inactive) | > 100 | > 100 µM (inactive) | > 100 µM (inactive) | > 100 µM (inactive) | > 100 µM (inactive) |
| O=C1C2C(C(=O)N1O)N(Cc1ccccc1)C(=O)N2Cc1ccccc1 (centres undefined) | > 100 µM (inactive) | > 100 µM (inactive) | > 100 µM (inactive) | > 100 µM (inactive) | > 100 µM (inactive) | > 100 µM (inactive) |  | > 100 µM (inactive) | > 100 µM (inactive) | > 100 µM (inactive) | > 100 µM (inactive) | > 100 µM (inactive) | > 100 µM (inactive) | > 100 µM (inactive) | > 100 | > 100 µM (inactive) | > 100 µM (inactive) | > 100 µM (inactive) | > 100 µM (inactive) |
| CN(C)c1ccc(/C=N/c2ccc(-c3nc4ccccc4o3)cc2)cc1 | 40.8 µM (inactive) | 79.1 µM (inactive) | 67.8 µM (inactive) |  | 56.2 µM (inactive) | 24.7 µM (inactive) | 40.9 µM (inactive) | 35 µM (inactive) | 35.2 µM (inactive) | 42.6 µM (inactive) | 48.8 µM (inactive) | > 100 µM (inactive) | 35 µM (inactive) | 28.8 µM (inactive) | 31.8 | 50.6 µM (inactive) | 36.5 µM (inactive) | 36.7 µM (inactive) | 33.5 µM (inactive) |
| CCC1c2[nH]c3ccccc3c2C[C@H]2C(=O)NC(COC(C)(C)C)C(=O)N12 (some centres undefined) |  | 67.3 µM (inactive) | 86.3 µM (inactive) | 32.4 µM (inactive) | 38.2 µM (inactive) | 31.4 µM (inactive) | 41.8 µM (inactive) | 63 µM (inactive) | 37.3 µM (inactive) | 29.8 µM (inactive) | 38.2 µM (inactive) | 47.3 µM (inactive) | 76.6 µM (inactive) | 31.2 µM (inactive) | 48 | 61.2 µM (inactive) | 27.1 µM (inactive) | 39.4 µM (inactive) | 39.1 µM (inactive) |
